US20180221306A1, “PHARMACEUTICAL COMPOSITIONS OF 5-HYDROXY-2-METHYLNAPHTHALENE-1,4-DIONE” (PellFiCure Pharmaceuticals, Inc., priority 2016, published 2018)

Experiment: Forced degradation: stability of Compound I formulations in selected solvents and Carrier A (HPLC)
[1] = EtOH, 25° C./60% RH, t = 2 week

## CC1=CC(=O)c2c(O)cccc2C1=O [Compound I, 5-hydroxy-2-methylnaphthalene-1,4-dione]
Carrier A (SR), 40° C./75% RH, t = 3 day
  Stability of the formulation in Carrier A (sesame oil), Purity: 99.3 Area - %
Carrier A (SR), 40° C./75% RH, t = 10 day
  Stability of the formulation in Carrier A (sesame oil), Purity: 99.3 Area - %
Carrier A (SR: super refined grade), t = 0, reported from a representative standard
  Stability of the formulation in Carrier A (sesame oil), Purity: 99.7 Area - %
DCM, 25° C./60% RH, t = 0
  Solution Stability in Selected Solvents, Purity: 92.84 % Area
DCM, 25° C./60% RH, t = 1 week
  Solution Stability in Selected Solvents, Purity: 93.85 % Area
DCM, 25° C./60% RH, t = 2 week
  Solution Stability in Selected Solvents, Purity: 92.99 % Area
DCM, 40° C./75% RH, t = 1 week
  Solution Stability in Selected Solvents, Purity: 91.88 % Area
DCM, 40° C./75% RH, t = 2 week
  Solution Stability in Selected Solvents, Purity: 81.23 % Area
DMSO, 25° C./60% RH, t = 0
  Solution Stability in Selected Solvents, Purity: 94.08 % Area
DMSO, 25° C./60% RH, t = 1 week
  Solution Stability in Selected Solvents, Purity: 93.47 % Area
DMSO, 25° C./60% RH, t = 2 week
  Solution Stability in Selected Solvents, Purity: 92.47 % Area
DMSO, 40° C./75% RH, t = 1 week
  Solution Stability in Selected Solvents, Purity: 89.28 % Area
DMSO, 40° C./75% RH, t = 2 week
  Solution Stability in Selected Solvents, Purity: 89.26 % Area
Diluent, 25° C./60% RH, t = 0
  Solution Stability in Selected Solvents, Purity: 99.77 % Area
Diluent, 25° C./60% RH, t = 1 week
  Solution Stability in Selected Solvents, Purity: 99.76 % Area
Diluent, 25° C./60% RH, t = 2 week
  Solution Stability in Selected Solvents, Purity: 99.79 % Area
Diluent, 40° C./75% RH, t = 1 week
  Solution Stability in Selected Solvents, Purity: 99.81 % Area
Diluent, 40° C./75% RH, t = 2 week
  Solution Stability in Selected Solvents, Purity: 99.82 % Area
EA (poor chromatography observed with ethyl acetate), 25° C./60% RH, t = 0
  Solution Stability in Selected Solvents, Purity: 80.16 % Area
EA (poor chromatography), 25° C./60% RH, t = 1 week
  Solution Stability in Selected Solvents, Purity: 77.38 % Area
EA (poor chromatography), 25° C./60% RH, t = 2 week
  Solution Stability in Selected Solvents, Purity: 76.03 % Area
EA (poor chromatography), 40° C./75% RH, t = 1 week
  Solution Stability in Selected Solvents, Purity: 77.28 % Area
EA (poor chromatography), 40° C./75% RH, t = 2 week
  Solution Stability in Selected Solvents, Purity: 77.13 % Area
EtOH, 25° C./60% RH, t = 0
  Solution Stability in Selected Solvents, Purity: 99.37 % Area
EtOH, 25° C./60% RH, t = 1 week
  Solution Stability in Selected Solvents, Purity: 96.08 % Area
[1]
  Solution Stability in Selected Solvents, % Potency: 93.35%
  Solution Stability in Selected Solvents, Purity: 92.82 % Area
EtOH, 40° C./75% RH, t = 1 week
  Solution Stability in Selected Solvents, Purity: 91.99 % Area
EtOH, 40° C./75% RH, t = 2 week
  Solution Stability in Selected Solvents, Purity: 89.39 % Area
IPA, 25° C./60% RH, t = 0
  Solution Stability in Selected Solvents, Purity: 98.80 % Area
IPA, 25° C./60% RH, t = 1 week
  Solution Stability in Selected Solvents, Purity: 95.62 % Area
IPA, 25° C./60% RH, t = 2 week
  Solution Stability in Selected Solvents, Purity: 93.35 % Area
IPA, 40° C./75% RH, t = 1 week
  Solution Stability in Selected Solvents, Purity: 91.10 % Area
IPA, 40° C./75% RH, t = 2 week
  Solution Stability in Selected Solvents, Purity: 89.40 % Area
MeOH, 25° C./60% RH, t = 0
  Solution Stability in Selected Solvents, Purity: 99.32 % Area
MeOH, 25° C./60% RH, t = 1 week
  Solution Stability in Selected Solvents, Purity: 95.54 % Area
MeOH, 25° C./60% RH, t = 2 week
  Solution Stability in Selected Solvents, Purity: 88.79 % Area
MeOH, 40° C./75% RH, t = 1 week
  Solution Stability in Selected Solvents, Purity: 86.56 % Area
MeOH, 40° C./75% RH, t = 2 week
  Solution Stability in Selected Solvents, Purity: 83.85 % Area
PEG 300, 25° C./60% RH, t = 0
  Solution Stability in Selected Solvents, Purity: 98.52 % Area
PEG 300, 25° C./60% RH, t = 1 week
  Solution Stability in Selected Solvents, Purity: 88.59 % Area
PEG 300, 25° C./60% RH, t = 2 week
  Solution Stability in Selected Solvents, Purity: 80.73 % Area
PEG 300, 40° C./75% RH, t = 1 week
  Solution Stability in Selected Solvents, Purity: 65.16 % Area
PEG 300, 40° C./75% RH, t = 2 week
  Solution Stability in Selected Solvents, Purity: 49.31 % Area
PEG 400, 25° C./60% RH, t = 0
  Solution Stability in Selected Solvents, Purity: 98.33 % Area
PEG 400, 25° C./60% RH, t = 1 week
  Solution Stability in Selected Solvents, Purity: 88.42 % Area
PEG 400, 25° C./60% RH, t = 2 week
  Solution Stability in Selected Solvents, Purity: 81.00 % Area
PEG 400, 40° C./75% RH, t = 1 week
  Solution Stability in Selected Solvents, Purity: 70.08 % Area
PEG 400, 40° C./75% RH, t = 2 week
  Solution Stability in Selected Solvents, Purity: 49.07 % Area
PG, 25° C./60% RH, t = 0
  Solution Stability in Selected Solvents, Purity: 99.65 % Area
PG, 25° C./60% RH, t = 1 week
  Solution Stability in Selected Solvents, Purity: 99.14 % Area
PG, 25° C./60% RH, t = 2 week
  Solution Stability in Selected Solvents, Purity: 97.81 % Area
PG, 40° C./75% RH, t = 1 week
  Solution Stability in Selected Solvents, Purity: 97.49 % Area
PG, 40° C./75% RH, t = 2 week
  Solution Stability in Selected Solvents, Purity: 96.43 % Area
THF, 25° C./60% RH, t = 0
  Solution Stability in Selected Solvents, Purity: 96.45 % Area
THF, 25° C./60% RH, t = 1 week
  Solution Stability in Selected Solvents, Purity: 94.19 % Area
THF, 25° C./60% RH, t = 2 week
  Solution Stability in Selected Solvents, Purity: 91.24 % Area
THF, 40° C./75% RH, t = 1 week
  Solution Stability in Selected Solvents, Purity: 92.54 % Area
THF, 40° C./75% RH, t = 2 week
  Solution Stability in Selected Solvents, % Potency: 99.82%
  Solution Stability in Selected Solvents, Purity: 89.34 % Area
Tween-20 or Tween-80 surfactant formulations
  Compound I lost: ≥ 50%
